Laboratory results: paper PMC10141604, “Small-Molecule Inhibition of Androgen Receptor Dimerization as a Strategy against Prostate Cancer” (ACS Central Science, 2023)

Biological target: T1, AR LBD dimer (Homo sapiens, UniProt P10275)
T1 construct: The AR LBD (663-919) was fused into the pET50b vector with Nus-tag; Nus-tag (cleaved yes); made in house; host or cells: E. coli BL21 (DE3)
Assay: SAXS and CXMS analysis of AR LBD dimerization
Format: biochemical
Protocol: 30 μM AR LBD protein was crosslinked with a 50× molar excess of freshly prepared BS3 (#21580, ThermoFisher) in 20 mM HEPES (pH 7.4), 5% Glycerol, 150 mM NaCl, 10 μM DHT, with or without 90 μM M17-B15. The cross-linking reaction was conducted at room temperature with gentle mixing, and was quenched after 45 min with the addition of Tris-HCl buffer (pH 8.0) to a concentration of 20 mM.
Cross-linked proteins were precipitated with 6-fold volume of pre-cooled acetone for 2 h at -20 °C. Centrifuge at 14,000 rpm for 20 min, and discard the supernatant. Then added 20 μL 100 mM Tris-HCl buffer (pH 8.5), 8 M urea, and ultrasound for 20 min to assist protein dissolution. 5 mM reducing agent TCEP, 10 mM alkylating agent iodoacetamide, 1 mM CaCl2 and 20 mM methylamine were added in tandem. And 3-fold volume of 100 mM Tris pH 8.5 was added to dilute urea to 2 M. Then added trypsin (the mass ratio of enzyme to protein is 1:50) and digested the protein samples at 37 °C for 14 h. Finally, quenched the digestion reaction by adding formic acid with a final […]
An Easy nLC 1000 system (ThermoFisher) coupled to a Velos Pro Orbitrap Elite mass spectrometer (ThermoFisher) was used for mass spectrometry analysis. The resulting peptide mixture was vacuum-centrifuged to dryness, and reconstituted in 0.1% formic acid. […]
respectively. […] The scattering profile for matching buffer was also recorded and was subtracted. […]

T1 sequence (P10275 663-919): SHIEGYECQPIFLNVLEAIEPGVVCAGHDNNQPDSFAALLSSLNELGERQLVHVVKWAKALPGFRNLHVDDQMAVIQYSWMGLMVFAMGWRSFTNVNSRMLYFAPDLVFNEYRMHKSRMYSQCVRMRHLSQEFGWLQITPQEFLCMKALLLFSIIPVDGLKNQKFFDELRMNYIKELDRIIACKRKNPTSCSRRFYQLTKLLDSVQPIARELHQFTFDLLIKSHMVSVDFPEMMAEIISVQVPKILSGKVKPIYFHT

- Dmax value of the AR LBD (SAXS) (upon addition of compound): markedly reduced
- proportion of the AR LBD dimer (with DHT, 20% without M17-B15): 15%
Compound: CC(=O)Cc1nsc(NC(=O)c2cc(-c3cccc(C(F)(F)F)c3)oc2C)n1 [Compound M17-B15]
